Test results as given in ChEMBL document CHEMBL1153069, “Isolation, enzyme-bound structure and antibacterial activity of platencin A1 from Streptomyces platensis” (Bioorg Med Chem Lett, 2009).
≈ marks a conversion by molar mass, not a printed value. Calls of active or inactive are those of the source. No cut-off for these calls is given here.

Experiments:
Enterococcus faecalis [1] = test: Antibacterial activity against Enterococcus faecalis CL8516 at 64 ug/mL; type: functional, organism-based
Streptococcus pneumoniae [2] = test: Antibacterial activity against Streptococcus pneumoniae CL2883 at 64 ug/mL; type: functional, organism-based
Staphylococcus aureus [3] = test: Inhibition of FAS2 in Staphylococcus aureus assessed as inhibition of fatty acid synthesis at 167 ug/ml
Staphylococcus aureus [4] = test: Antibacterial activity against Staphylococcus aureus Smith at 64 ug/mL; type: functional, organism-based
Staphylococcus aureus [5] = test: Antibacterial activity against Staphylococcus aureus Smith; type: functional
[6] = Inhibition of FAS2 in Staphylococcus aureus assessed as inhibition of fatty acid synthesis by scintillation counting
Enterococcus faecalis [7] = test: Antibacterial activity against Enterococcus faecalis CL8516; type: functional
Streptococcus pneumoniae [8] = test: Antibacterial activity against Streptococcus pneumoniae CL2883; type: functional
[9] = Inhibition of FabH in Staphylococcus aureus assessed as inhibition of fatty acid synthesis
Staphylococcus aureus [10] = test: Antibacterial activity against Staphylococcus aureus assessed as minimum concentration required to differential zone of clearance between antisense plate compared to control; type: functional
[11] = Inhibition of Escherichia coli FabF C163F

| Structure (SMILES) | Activity (Staphylococcus aureus [3]) | IC50 [6] | Activity (Enterococcus faecalis [1]) | Activity (Streptococcus pneumoniae [2]) | Activity (Staphylococcus aureus [4]) | Activity (Staphylococcus aureus [10]) | further results |
| --- | --- | --- | --- | --- | --- | --- | --- |
| C=C1C[C@@]23C=CC(=O)[C@@](C)(CCC(=O)Nc4c(O)ccc(C(=O)OC)c4O)C2C[C@@H]1C[C@H]3O (stereo partly drawn) | inactive | – | inactive | inactive | inactive | – | – |
| C=C1C[C@@]23C=CC(=O)[C@@](C)(CCC(=O)Nc4c(O)ccc(C(=O)O)c4O)C2C[C@@H]1C[C@H]3O (stereo partly drawn) | – | 7.12 µg/mL (≈ 16.1 µM) | – | – | – | 20 µg/mL | MIC (Staphylococcus aureus [5]): 32 µg/mL (≈ 72.5 µM); MIC (Enterococcus faecalis [7]): 8 µg/mL (≈ 18.1 µM); MIC (Streptococcus pneumoniae [8]): > 64 µg/mL; IC50 [9]: 15 µg/mL (≈ 34 µM) |
| C=C1C[C@@]23C=CC(=O)[C@@](C)(CCC(=O)OC)C2C[C@@H]1C[C@H]3O (stereo partly drawn) | inactive | – | inactive | inactive | inactive | – | – |

Further lines, with some results ahead:

| Activity (Staphylococcus aureus [3]) | IC50 [6] | Structure (SMILES) | Activity (Enterococcus faecalis [1]) | Activity (Streptococcus pneumoniae [2]) | Activity (Staphylococcus aureus [4]) | Activity (Staphylococcus aureus [10]) | further results |
| --- | --- | --- | --- | --- | --- | --- | --- |
| – | 12 µg/mL (≈ 28.2 µM) | C=C1C[C@@]23C=CC(=O)[C@@](C)(CCC(=O)Nc4c(O)ccc(C(=O)O)c4O)[C@@H]2C[C@@H]1CC3 [PLATENCIN] | – | – | – | 0.2 µg/mL | IC50 [11]: 113 nM |
| – | 0.5 µg/mL (≈ 1.13 µM) | CC12C[C@@]34C=CC(=O)[C@@](C)(CCC(=O)Nc5c(O)ccc(C(=O)O)c5O)C3[C@H](CC1C4)O2 (stereo partly drawn) [PLATENSIMYCIN] | – | – | – | – | – |
